Where a name gives a salt, the structure may show the parent alone.
SMILES | melting point
Cl.Cl.N=C(N)c1ccc(OCCCOc2ccc(-c3cc4ccc(C(=N)N)cc4o3)cc2)cc1 | 294 to 295 °C
N=C(NO)c1cccc(-c2cc3ccc(C(=N)NO)cc3o2)c1 (as salt: HCl) [Compound 180, 2-(3-(N-Hydroxycarbamimidoyl)phenyl)-N-hydroxybenzofuran-6-carboxamidine] | 210 °C (dec.)
N=C(NO)c1ccc(-c2cc3ccc(C(=N)NO)cc3o2)cc1 (as salt: HCl) [Compound 181, 2-(4-(N-Hydroxycarbamimidoyl)phenyl)-N-hydroxybenzofuran-6-carboxamidine] | 210 °C (dec.)
N=C(NO)c1ccc(OCCCOc2ccc(-c3cc4cc(C(=N)NO)ccc4o3)cc2)cc1 (as salt: HCl) [Compound 182, 2-(4-(3-(4-(N-Hydroxycarbamimidoyl)phenoxy)propoxy)phenyl)-N-hydroxybenzofuran-5-carboxamidine] | 204 °C (dec.)
N=C(NO)c1ccc(OCCCCCOc2ccc(-c3cc4cc(C(=N)NO)ccc4o3)cc2)cc1 (as salt: HCl) [Compound 183, 2-(4-(5-(4-(N-Hydroxycarbamimidoyl)phenoxy)pentyloxy)phenyl)-N-hydroxybenzofuran-5-carboxamidine] | 202 °C (dec.)
N=C(NO)c1ccc2cc(CCCCCc3cc4ccc(C(=N)NO)cc4o3)oc2c1 (as salt: HCl) [Compound 184, 2-(5-(6-(N-Hydroxycarbamimidoyl)benzofuran-2-yl)pentyl)-N-hydroxybenzofuran-6-carboxamidine] | 220 °C (dec.)
N=C(NO)c1ccc2oc(CCCc3cc4cc(C(=N)NO)ccc4o3)cc2c1 (as salt: HCl) [Compound 185, 2-(3-(5-(N-Hydroxycarbamimidoyl)benzofuran-2-yl)propyl)-N-hydroxybenzofuran-5-carboxamidine] | 145 to 147 °C (dec.)
N=C(NO)c1ccc2oc(CCCCc3cc4cc(C(=N)NO)ccc4o3)cc2c1 (as salt: HCl) [Compound 186, 2-(4-(5-(N-Hydroxycarbamimidoyl)benzofuran-2-yl)butyl)-N-hydroxybenzofuran-5-carboxamidine] | 231 °C (dec.)
CONC(=N)c1ccc2cc(CCCCCc3cc4ccc(C(=N)NOC)cc4o3)oc2c1 (as salt: HCl) [Compound 187, 2-(5-(6-(N-Methoxycarbamimidoyl)benzofuran-2-yl)pentyl)-N-methoxybenzofuran-6-carboxamidine] | 230 to 231 °C (dec.)
CONC(=N)c1ccc2oc(CCCc3cc4cc(C(=N)NOC)ccc4o3)cc2c1 (as salt: HCl) [Compound 188, 2-(3-(5-(N-Methoxycarbamimidoyl)benzofuran-2-yl)propyl)-N-methoxybenzofuran-5-carboxamidine] | 89 to 90 °C (dec.)
CONC(=N)c1ccc2oc(CCCCc3cc4cc(C(=N)NOC)ccc4o3)cc2c1 (as salt: HCl) [Compound 189, 2-(4-(5-(N-Methoxycarbamimidoyl)benzofuran-2-yl)butyl)-N-methoxybenzofuran-5-carboxamidine] | 248 to 250 °C (dec.)
CONC(=N)c1ccc2oc(CCc3cc4cc(C(=N)NOC)ccc4o3)cc2c1 (as salt: HCl) [Compound 191, 2-(2-(5-(N-Methoxycarbamimidoyl)benzofuran-2-yl)ethyl)-N-methoxybenzofuran-5-carboxamidine] | 245 to 246 °C (dec.)
N=C(NO)c1ccc2oc(CCCCCc3cc4cc(C(=N)NO)ccc4o3)cc2c1 (as salt: HCl) [Compound 192, 2-(5-(5-(N-Hydroxycarbamimidoyl)benzofuran-2-yl)pentyl)-N-hydroxybenzofuran-5-carboxamidine] | 120 °C (dec.)
CONC(=N)c1ccc2oc(CCCCCc3cc4cc(C(=N)NOC)ccc4o3)cc2c1 (as salt: HCl) [Compound 193, 2-(5-(5-(N-Methoxycarbamimidoyl)benzofuran-2-yl)pentyl)-N-methoxybenzofuran-5-carboxamidine] | 118 °C (dec.)
c1cc(OCCCCCCOc2ccc(C3=NCCN3)cc2)cc(-c2cc3cc(C4=NCCN4)ccc3o2)c1 (as salt: salt) [Compound 43, 2-(2-(3-(6-(4-(4,5-Dihydro-1H-imidazol-2-yl)phenoxy)hexyloxy)phenyl)benzofuran-5-yl)-4,5-dihydro-1H-imidazole] | 178 to 182 °C
Cl.Cl.c1cc(C2=NCCN2)c2cc(Cc3cc4c(C5=NCCN5)cccc4o3)oc2c1 [Compound 3, Bis(4-(4,5-dihydro-1H-imidazol-2-yl)benzofuran-2-yl)methane dihydrochloride] | 333 to 335 °C
Cl.Cl.N=C(N)c1ccc2oc(Cc3cc4cc(C(=N)N)ccc4o3)cc2c1 [Compound 4, 2-((5-Amidinobenzofuran-2-yl)methyl)benzofuran-5-carboxamidine dihydrochloride] | 212 to 214 °C
Cl.Cl.c1cc2oc(Cc3cc4cc(C5=NCCN5)ccc4o3)cc2cc1C1=NCCN1 [Compound 6, Bis(5-(4,5-dihydro-1H-imidazol-2-yl)benzofuran-2-yl)methane dihydrochloride] | 233 to 235 °C
Cl.Cl.c1cc2cc(Cc3cc4ccc(C5=NCCN5)cc4o3)oc2cc1C1=NCCN1 [Compound 7, Bis(6-(4,5-dihydro-1H-imidazol-2-yl)benzofuran-2-yl)methane dihydrochloride] | 341 to 343 °C
Cl.Cl.c1cc2oc(CCc3cc4cc(C5=NCCN5)ccc4o3)cc2cc1C1=NCCN1 [Compound 10, 4,5-Dihydro-2-(2-(2-(5-(4,5-dihydro-1H-imidazol-2-yl)benzofuran-2-yl)ethyl)benzofuran-5-yl)-1H-imidazole dihydrochloride] | 366 °C (dec.)
Cl.Cl.N=C(N)c1ccc2cc(CCc3cc4ccc(C(=N)N)cc4o3)oc2c1 [Compound 11, 2-(2-(6-Amidinobenzofuran-2-yl)ethyl)benzofuran-6-carboxamidine dihydrochloride] | 362 °C (dec.)
Cl.Cl.c1cc2cc(CCc3cc4ccc(C5=NCCN5)cc4o3)oc2cc1C1=NCCN1 [Compound 13, 4,5-dihydro-2-(2-(2-(6-(4,5-dihydro-1H-imidazol-2-yl)benzofuran-2-yl)ethyl)benzofuran-6-yl)-1H-imidazole dihydrochloride] | > 360 °C
Cl.Cl.N=C(N)c1ccc2oc(CCCc3cc4cc(C(=N)N)ccc4o3)cc2c1 [Compound 14, 2-(3-(5-Amidinobenzofuran-2-yl)propyl)benzofuran-5-carboxamidine dihydrochloride] | 168 to 170 °C
Cl.Cl.c1cc2oc(CCCc3cc4cc(C5=NCCN5)ccc4o3)cc2cc1C1=NCCN1 [Compound 16, 4,5-Dihydro-2-(2-(3-(5-(4,5-dihydro-1H-imidazol-2-yl)benzofuran-2-yl)propyl)benzofuran-5-yl)-1H-imidazole dihydrochloride] | 203 to 205 °C
Cl.Cl.N=C(N)c1ccc2cc(CCCc3cc4ccc(C(=N)N)cc4o3)oc2c1 [Compound 17, 2-(3-(6-Amidinobenzofuran-2-yl)propyl)benzofuran-6-carboxamidine dihydrochloride] | > 300 °C (dec.)
Cl.Cl.c1cc2cc(CCCc3cc4ccc(C5=NCCN5)cc4o3)oc2cc1C1=NCCN1 [Compound 19, 4,5-Dihydro-2-(2-(3-(6-(4,5-dihydro-1H-imidazol-2-yl)benzofuran-2-yl)propyl)benzofuran-6-yl)-1H-imidazole dihydrochloride] | > 300 °C (dec.)

Source: patent US20080114047A1 (priority 2003, published 2008)
